The source of these data is paper PMC6268314, “Diterpenoids from the Buds of Pinus banksiana Lamb” (Molecules, 2012).

Holding throughout (assay type): cell-based
In data set [1] the test system is WS1, human normal skin fibroblasts. The experiment in a line: Cytotoxicity assay (Hoechst DNA assay), WS1. To be noted: Skin fibroblast, concentration inhibiting 50% cell growth, 48 h, mean of three independent assays. Here is the method: (§1) P. banksiana buds were extracted successively with hexanes, CH2Cl2 and MeOH. After solvent evaporation, each extract was investigated for in vitro cytotoxic and antibacterial activities. Cytotoxic activity evaluations were carried out on lung cancer (A549), colorectal cancer (DLD-1) and normal skin fibroblasts (WS1) human cell lines using the Hoechst assay. Antibacterial activity was evaluated against Escherichia coli and Staphylococcus aureus. […] Therefore, following studies were focused on the CH2Cl2 extract that was further separated over column chromatography on silica gel to afford eleven fractions (A–K). All fractions activities were tested against both cancer cell lines and bacterial strains. […] In a next step, fractions F, G, H and K were separated by a combination of chromatographic procedures to afford the three new compounds 1–3 together with 12 known compounds. The structures of the new compounds were determined as follows and the known products were identified by comparison of their spectroscopic data with values found in the literature.
(§2) Lung carcinoma (A549), colorectal adenocarcinoma (DLD-1) and normal skin fibroblast (WS1) human cell lines were obtained from the American Type Culture Collection (ATCC). All cell lines were cultured in minimum essential medium containing Earle’s salts and L-glutamine (Mediatech Cellgro, VA, USA), to which were added 10% fetal bovine serum (Hyclone), vitamins (1X), penicillin (100 I.U./mL) and streptomycin (100 µg/mL), essential amino acids (1X) and sodium pyruvate (1X) (Mediatech Cellgro, VA). Cells were kept at 37 °C in a humidified environment containing 5% CO2. Antibacterial activity was tested on Escherichia coli ATCC 25922 and Staphylococcus aureus ATCC 25923E.
Exponentially growing cells were plated on 96-well microplates (BD Falcon) at a density of 5 × 10^3 cells per well in 100 μL of culture medium (DMEM with 10% SVF) and were allowed to adhere for 24 h before treatment. Increasing concentrations of each compound in MeOH or DMSO were then added (100 μL per well) and cells were incubated for 48 h. The final concentration of MeOH or DMSO in the culture medium was maintained at 0.25% (v/v) to avoid solvent toxicity. Microplates were then emptied and stored at −80 °C for 24 h. In a next step, 100 μL of SDS (0.01%) were added and the microplates were incubated at room temperature during 3 h before being put back to the cold. After 24 h, cells were prepared for cellular DNA assay with 100 μL of Hoechst dye 33342. Measurements were performed on the same labsystems at 365 and 460 nm wavelengths. Survival percentage was defined as the fluorescene in experimental wells compared to the control wells after subtraction of the blank values. Etoposide was used as positive control. […] IC50 results were expressed as averaged values and the corresponding standard deviations were computed.

Data set [2] concerns A549, human lung carcinoma cell line. The experiment in a line: Cytotoxicity assay (Hoechst DNA assay), A549. To be noted: for IC50: Homo sapiens, A549, concentration inhibiting 50% cell growth, 48 h, mean of three independent assays. How it is done: as §1, §2
(§3) Exponentially growing cells were plated on 96-well microplates (BD Falcon) at a density of 5 × 10^3 cells per well in 100 μL of culture medium (DMEM with 10% SVF) and were allowed to adhere for 24 h before treatment. Increasing concentrations of each compound in MeOH or DMSO were then added (100 μL per well) and cells were incubated for 48 h. The final concentration of MeOH or DMSO in the culture medium was maintained at 0.25% (v/v) to avoid solvent toxicity. Microplates were then emptied and stored at −80 °C for 24 h. In a next step, 100 μL of SDS (0.01%) were added and the microplates were incubated at room temperature during 3 h before being put back to the cold. After 24 h, cells were prepared for cellular DNA assay with 100 μL of Hoechst dye 33342. Measurements were performed on the same labsystems at 365 and 460 nm wavelengths. Survival percentage was defined as the fluorescene in experimental wells compared to the control wells after subtraction of the blank values. Etoposide was used as positive control. Each experiment was carried out two times in triplicata. IC50 results were expressed as averaged values and the corresponding standard deviations were computed.

Data set [3] deals with DLD-1, human colorectal adenocarcinoma cell line. The experiment in a line: Cytotoxicity assay (Hoechst DNA assay), DLD-1. The following applies: concentration inhibiting 50% cell growth, 48 h, mean of three independent assays; for IC50: Homo sapiens, DLD-1. Here is the method:
as §1, §2, §3

The subject of data set [4] is Staphylococcus aureus ATCC 25923. Kind of data set: Antibacterial microdilution assay (resazurin), S. aureus. The following applies: 6 h at 37 °C. How it is done:
as §2
(§4) Antibacterial activity was evaluated using the microdilution method described by Banfi et al. with some modifications. Exponentially growing bacteria were plated in 96-well flat bottom microplates (BD Flacon) at a density of 5 × 10^3 gram-negative E. coli (ATCC 25922) or 40 × 10^3 gram-positive S. aureus (ATCC 25923) per well in 100 μL nutrient broth (Difco). The concentration of ethanol in the culture medium was maintained at 0.25% (v/v) to avoid solvent toxicity. Thereafter, 50 μL of 4% resazurin was added to each well and the microplates were incubated for 6 h at 37 °C. Fluorescence was measured after 6 h with an automated 96-well Fluoroskan Ascent Fl™ plate reader (Labsystems) using 530 and 590 nm excitation and emission wavelengths.
(Dilution methods test growth across graded concentrations, often in twofold steps.)

In data set [5] the test system is Escherichia coli ATCC 25922. Kind of data set: Antibacterial microdilution assay (resazurin), E. coli. To be noted: 6 h at 37 °C. Here is the method: as §2, §4

Molecules are shown by their SMILES.

A word on the IC50: it is the midpoint of a concentration-inhibition curve. In the case of `CC(C)(O)c1ccc2c(c1)C(O)CC1C(C)(CO)CCCC21C` (stereo not drawn) [Compound 2, 7β,15,18-trihydroxyabieta-8,11,13-triene], the IC50 is over 100 µM in data set [1] (isolated compounds); over 100 µM in data set [2] (isolated compounds); over 100 µM in data set [3] (isolated compounds); over 100 µM in data set [4] (ATCC25923, isolated compounds); over 100 µM in data set [5] (ATCC25922, isolated compounds).

Consider `CC(C)(O)c1ccc2c(c1)CC[C@H]1[C@](C)(C(=O)O)CCC[C@]21C` [Compound 7, 15-hydroxydehydroabietic acid], for which the IC50 in data set [1] (isolated compounds) was over 100 µM; in data set [2] (isolated compounds), 98 ± 2 µM; in data set [3] (isolated compounds), over 100 µM; in data set [4] (ATCC25923, isolated compounds), over 100 µM; in data set [5] (ATCC25922, isolated compounds), over 100 µM.

On to `C=C(C)c1ccc2c(c1)[C@H](O)CC1[C@](C)(C(=O)O)CCC[C@]21C` (stereo partly drawn) [Compound 1, 7α-hydroxyabieta-8,11,13,15-tetraen-18-oic acid], for which the IC50 in data set [1] (isolated compounds) was over 100 µM; in data set [2] (isolated compounds) it was over 100 µM; in data set [3] (isolated compounds), over 100 µM; in data set [4] (ATCC25923, isolated compounds), over 100 µM; in data set [5] (ATCC25922, isolated compounds), over 100 µM.

As for `C[C@@]1(CO)CCC[C@]2(C)c3ccc(O)cc3CCC12` (stereo partly shown) [Compound 3], the half-maximal inhibitory concentration (IC50) in data set [1] (isolated compounds) was over 100 µM; in data set [2] (isolated compounds), over 100 µM; in data set [3] (isolated compounds), over 100 µM; in data set [4] (ATCC25923, isolated compounds) it was over 100 µM; in data set [5] (ATCC25922, isolated compounds), over 100 µM.

As for `CC(C)(O)c1ccc2c(c1)C(=O)CC1[C@](C)(C(=O)O)CCC[C@]21C` (stereo partly shown) [Compound 15, 15-hydroxy-7-oxo-abieta-8,11,13-trien-18-oic acid], the IC50 in data set [1] (isolated compounds) was over 100 µM; in data set [2] (isolated compounds) it was over 100 µM; in data set [3] (isolated compounds) it was over 100 µM; in data set [4] (ATCC25923, isolated compounds), over 100 µM; in data set [5] (ATCC25922, isolated compounds) it was over 100 µM.

In the case of `CC(C)c1ccc2c(c1)[C@@H](O)CC1[C@](C)(C(=O)O)CCC[C@]21C` (stereo partly drawn) [Compound 11, 7β-hydroxydehydroabietic acid], the IC50 in data set [1] (isolated compounds) is over 100 µM; in data set [2] (isolated compounds) it was over 100 µM; in data set [3] (isolated compounds), over 100 µM; in data set [4] (ATCC25923, isolated compounds), over 100 µM; in data set [5] (ATCC25922, isolated compounds), over 100 µM.

With `CC(C)c1ccc2c(c1)[C@@H](O)CC1[C@](C)(O)CCC[C@]21C` (stereo partly drawn) [Compound 9, 18-nor-abieta-8,11,13-triene-4,7β-diol], the IC50 in data set [1] (isolated compounds) is over 100 µM; in data set [2] (isolated compounds), over 100 µM; in data set [3] (isolated compounds), over 100 µM; in data set [4] (ATCC25923, isolated compounds) it was over 100 µM; in data set [5] (ATCC25922, isolated compounds) it was over 100 µM.

As for `CC(C)c1ccc2c(c1)[C@H](O)CC1[C@](C)(O)CCC[C@]21C` (stereo partly drawn) [Compound 8, 18-nor-abieta-8,11,13-triene-4,7α-diol], the IC50 in data set [1] (isolated compounds) is over 100 µM; in data set [2] (isolated compounds) it was 63 ± 7 µM; in data set [3] (isolated compounds), 91 ± 9 µM; in data set [4] (ATCC25923, isolated compounds), over 100 µM; in data set [5] (ATCC25922, isolated compounds), over 100 µM.

With `CC(C)c1ccc2c(c1)C(=O)C[C@H]1[C@](C)(CO)CCC[C@]21C` [Compound 12, 7-oxodehydroabietinol], the IC50 was over 100 µM in data set [1] (isolated compounds); 34 ± 4 µM in data set [2] (isolated compounds); 47 ± 9 µM in data set [3] (isolated compounds); over 100 µM in data set [4] (ATCC25923, isolated compounds); over 100 µM in data set [5] (ATCC25922, isolated compounds). For the same compound, the “cytotoxicity against lung carcinoma A549 (in words)” value in data set [2] (isolated compounds) is given as “moderate cytotoxicity”.

Regarding `CC(C)(O)c1ccc2c(c1)C(=O)C[C@H]1[C@](C)(O)CCC[C@]21C` [Compound 13, 18-nor-4,15-dihydroxyabieta-8,11,13-trien-7-one], the IC50 in data set [1] (isolated compounds) was over 100 µM; in data set [2] (isolated compounds), 46 ± 3 µM; in data set [3] (isolated compounds), over 100 µM; in data set [4] (ATCC25923, isolated compounds), over 100 µM; in data set [5] (ATCC25922, isolated compounds) it was over 100 µM. The “cytotoxicity against lung carcinoma A549 (in words)” value in data set [2] (isolated compounds) is “moderate cytotoxicity”. Further, the “IC50 DLD-1” value in data set [3] (isolated compounds) is recorded as “not to DLD-1”.

Turning to `COc1cc([C@@H]2c3cc4c(cc3[C@@H](O[C@@H]3O[C@@H]5CO[C@@H](C)O[C@H]5[C@H](O)[C@H]3O)[C@H]3COC(=O)[C@H]23)OCO4)cc(OC)c1O` [Etoposide, reference compound], the IC50 in data set [1] (extracts and fractions) came to 5.9 ± 0.6 µg/mL; in data set [1] (isolated compounds) it was 10 ± 2 µM; in data set [2] (extracts and fractions), 0.4 ± 0.2 µg/mL; in data set [2] (isolated compounds) it was 0.7 ± 0.3 µM; in data set [3] (extracts and fractions) it was 1.7 ± 0.3 µg/mL; in data set [3] (isolated compounds), 2.9 ± 0.5 µM.

As for `O=C(N[C@H](CO)[C@H](O)c1ccc([N+](=O)[O-])cc1)C(Cl)Cl` [Chloramphenicol, reference compound], the IC50 is over 1.6 µg/mL in data set [4] (ATCC25923, extracts and fractions); over 5 µM in data set [4] (ATCC25923, isolated compounds); 0.12 ± 0.02 µg/mL in data set [5] (ATCC25922, extracts and fractions); 0.37 ± 0.06 µM in data set [5] (ATCC25922, isolated compounds).

For the compound `CC(C)c1ccc2c(c1)[C@H](O)CC1[C@](C)(C(=O)O)CCC[C@]21C` (stereo partly drawn) [Compound 10, 7α-hydroxydehydroabietic acid], the half-inhibitory concentration (IC50) in data set [1] (isolated compounds) was over 100 µM; in data set [2] (isolated compounds), over 100 µM; in data set [3] (isolated compounds), over 100 µM; in data set [4] (ATCC25923, isolated compounds), over 100 µM; in data set [5] (ATCC25922, isolated compounds), over 100 µM.

As to `CC(C)(O)c1ccc2c(c1)C(=O)CC1[C@](C)(CO)CCC[C@]21C` (stereo partly shown) [Compound 14, 15,18-dihydroxyabieta-8,11,13-trien-7-one], the IC50 is over 100 µM in data set [1] (isolated compounds); over 100 µM in data set [2] (isolated compounds); over 100 µM in data set [3] (isolated compounds); over 100 µM in data set [4] (ATCC25923, isolated compounds); over 100 µM in data set [5] (ATCC25922, isolated compounds).

For `CC(C)(O)c1ccc2c(c1)[C@@H](O)CC1[C@](C)(C(=O)O)CCC[C@]21C` (stereo partly drawn) [Compound 6, 7β,15-dihydroxydehydroabietic acid], the IC50 was over 100 µM in data set [1] (isolated compounds); over 100 µM in data set [2] (isolated compounds); over 100 µM in data set [3] (isolated compounds); over 100 µM in data set [4] (ATCC25923, isolated compounds); over 100 µM in data set [5] (ATCC25922, isolated compounds).

On to `CC(C)(O)c1ccc2c(c1)[C@H](O)CC1[C@](C)(C(=O)O)CCC[C@]21C` (stereo partly drawn) [Compound 5, 7α,15-dihydroxydehydroabietic acid], for which the concentration for half-maximal inhibition (IC50) in data set [1] (isolated compounds) is over 100 µM; in data set [2] (isolated compounds), over 100 µM; in data set [3] (isolated compounds) it was over 100 µM; in data set [4] (ATCC25923, isolated compounds) it was over 100 µM; in data set [5] (ATCC25922, isolated compounds) it was over 100 µM.

`CC(C)(O)c1ccc2c(c1)[C@H](O)CC1[C@](C)(C=O)CCC[C@]21C` (stereo partly drawn) [Compound 4, 7α,15-dihydroxyabieta-8,11,13-trien-18-al]: the IC50 is over 100 µM in data set [1] (isolated compounds); over 100 µM in data set [2] (isolated compounds); over 100 µM in data set [3] (isolated compounds); over 100 µM in data set [4] (ATCC25923, isolated compounds); over 100 µM in data set [5] (ATCC25922, isolated compounds).
